# How the values were obtained:
# Assay type in all cases: cell-based
# [1] = tested on: P. aeruginosa 35151 (hyper-permeable strain); assay: broth microdilution MIC assay, P. aeruginosa 35151; conditions: Pseudomonas aeruginosa, read-out: MIC, P. aeruginosa 35151
# Method: (§1) To determine the ability of test compounds to inhibit the growth of bacterial strains, classic cell-based broth microdilution MIC assays were employed. MIC assays are performed according to CLSI methods except where otherwise noted (CLSI, 2011 and CLSI, 2009). The reference strains S. aureus ATCC 29213 (methicillin sensitive), S. aureus ATCC 33591 (methicillin-resistant), E. coli ATCC 25922 (wild-type/QC strain), P. aeruginosa ATCC 27853 (wild-type/QC strain), and the clinical isolate P. aeruginosa PA 8 were used to determine the ability of the exemplary carbapenem compounds to inhibit bacterial growth. An expanded panel of methicillin resistance S. aureus (MRSA) and Pseudomonas was also used to determine the ability of exemplary carbapenem compounds to inhibit bacterial growth across a broader representation of those species. To determine activity in MRSA and in addition to S. aureus ATCC 33591, S. aureus USA 300 and USA 600, some of the most common clones found to cause human infection, were also used. To further gauge the impact on the carbapenem compounds due to various resistance mechanisms in Pseudomonas, the following strains were included: P. aeruginosa 35151 (hyper-permeable strain), P. aeruginosa ΔmexAB-OprM (an efflux pump knockout), and P. aeruginosa Paβ-173 (a clinical isolate of reduced carbapenem susceptibility). Briefly, cryo-preserved bacterial cultures of clinical strains are streaked for isolation on appropriate agar medium, in this case Mueller Hinton II agar. Following incubation to allow formation of colonies, these plates are sealed with parafilm and stored refrigerated for up to two weeks. For preparation of assay inocula and to ensure low variability, at least 5 colonies are picked from the agar plates with an inoculating loop and aseptically transferred to a culture tube containing 3 mL of Mueller-Hinton Broth (supplemented with divalent cations to required levels based on Manufacturers' specification). The broth culture is grown for 3-5 hours at 37° C. with shaking at 200 rpm. Meanwhile, 2-fold serial dilutions of test compounds are conducted in a 96 well plate with a final volume of 75 μL per well at 2-fold the final desired concentration. After the dilution plates are set up the growing cultures are then diluted in a cuvette containing MH II broth and the optical density is measured at 600 nm. Inocula are diluted such that 75 μL of this culture in Mueller-Hinton Broth results in a starting bacterial concentration of 5×10^5 CFU/mL when added to the dilution plates. The plates are incubated 16-20 hours at 37° C. The MIC is read visually as the lowest concentration well with no bacterial growth.
# [2] = tested on: P. aeruginosa ΔmexAB-OprM (an efflux pump knockout); assay: broth microdilution MIC assay, P. aeruginosa ΔmexAB-OprM; conditions: Pseudomonas aeruginosa, read-out: MIC, P. aeruginosa ΔmexAB-OprM
# Method: as §1
# S. aureus USA 300 = assay: broth microdilution MIC assay, S. aureus USA300; conditions: Staphylococcus aureus; S. aureus USA300 (MRSA); read-out: MIC, S. aureus USA300
# Method: as §1
# P. aeruginosa Paeβ-17 = assay: broth microdilution MIC assay, P. aeruginosa Paeβ-17; conditions: Pseudomonas aeruginosa, read-out: MIC, P. aeruginosa Paeβ-17
# Method: as §1
# [3] = tested on: E. coli ATCC 25922 (wild-type/QC strain); assay: broth microdilution MIC assay, E. coli 25922; conditions: Escherichia coli, ATCC25922; read-out: MIC, E. coli 25922
# Method: as §1
# S. aureus USA 600 = assay: broth microdilution MIC assay, S. aureus USA600; conditions: Staphylococcus aureus; S. aureus USA600 (MRSA); read-out: MIC, S. aureus USA600
# Method: as §1
# [4] = tested on: P. aeruginosa ATCC 27853 (wild-type/QC strain); assay: broth microdilution MIC assay, P. aeruginosa 27853; conditions: Pseudomonas aeruginosa, ATCC27853; read-out: MIC, P. aeruginosa 27853
# Method: as §1
# [5] = tested on: S. aureus ATCC 33591 (methicillin-resistant); assay: broth microdilution MIC assay, S. aureus 33591; conditions: Staphylococcus aureus, ATCC33591; S. aureus 33591, methicillin-resistant; read-out: MIC, S. aureus 33591
# Method: as §1
SMILES,MIC [1] [µg/mL],MIC [2] [µg/mL],MIC (S. aureus USA 300) [µg/mL],MIC (P. aeruginosa Paeβ-17) [µg/mL],MIC [3] [µg/mL],MIC (S. aureus USA 600) [µg/mL],MIC [4] [µg/mL],MIC [5] [µg/mL]
"C[C@@H](O)[C@H]1C(=O)N2C(C(=O)O)=C(SC3CN([C@H]4C[C@@H](CN)C4)C3)[C@H](C)[C@H]12 [Example 1, (4R,5S,6S)-3-((1-((1s,3S)-3-(aminomethyl)cyclobutyl)azetidin-3-yl)thio)-6-((R)-1-hydroxyethyl)-4-methyl-7-oxo-1-azabicyclo[3.2.0]hept-2-ene-2-carboxylic acid]",< 1,1 to 4,1 to 4,> 32,< 1,1 to 4,8 to 32,8 to 32
"C[C@@H](O)[C@H]1C(=O)N2C(C(=O)O)=C(SC3CN([C@H]4C[C@H](CN)C4)C3)[C@H](C)[C@H]12 [Example 2, (4R,5S,6S)-3-((1-((1r,3R)-3-(aminomethyl)cyclobutyl)azetidin-3-yl)thio)-6-((R)-1-hydroxyethyl)-4-methyl-7-oxo-1-azabicyclo[3.2.0]hept-2-ene-2-carboxylic acid]",< 1,1 to 4,1 to 4,> 32,< 1,1 to 4,8 to 32,8 to 32
"C[C@@H](O)[C@H]1C(=O)N2C(C(=O)O)=C(SC3CN([C@H]4C[C@@H](N)C4)C3)[C@H](C)[C@H]12 [Example 3, (4R,5S,6S)-3-((1-((1s,3S)-3-aminocyclobutyl)azetidin-3-yl)thio)-6-((R)-1-hydroxyethyl)-4-methyl-7-oxo-1-azabicyclo[3.2.0]hept-2-ene-2-carboxylic acid]",< 1,1 to 4,1 to 4,> 32,< 1,1 to 4,8 to 32,8 to 32
"C[C@@H](O)[C@H]1C(=O)N2C(C(=O)O)=C(SC3CN([C@H]4C[C@H](N)C4)C3)[C@H](C)[C@H]12 [Example 4, (4R,5S,6S)-3-((1-((1r,3R)-3-aminocyclobutyl)azetidin-3-yl)thio)-6-((R)-1-hydroxyethyl)-4-methyl-7-oxo-1-azabicyclo[3.2.0]hept-2-ene-2-carboxylic acid]",< 1,1 to 4,1 to 4,> 32,< 1,1 to 4,8 to 32,8 to 32
"C[C@@H](O)[C@H]1C(=O)N2C(C(=O)O)=C(SC3CN([C@H]4CC[C@H](N)C4)C3)[C@H](C)[C@H]12 [Example 5, (4R,5S,6S)-3-((1-((1S,3S)-3-aminocyclopentyl)azetidin-3-yl)thio)-6-((R)-1-hydroxyethyl)-4-methyl-7-oxo-1-azabicyclo[3.2.0]hept-2-ene-2-carboxylic acid]",< 1,1 to 4,1 to 4,8 to 32,< 1,1 to 4,1 to 4,1 to 4
"C[C@@H](O)[C@H]1C(=O)N2C(C(=O)O)=C(SC3CN([C@@H]4CC[C@H](N)C4)C3)[C@H](C)[C@H]12 [Example 6, (4R,5S,6S)-3-((1-((1R,3S)-3-aminocyclopentyl)azetidin-3-yl)thio)-6-((R)-1-hydroxyethyl)-4-methyl-7-oxo-1-azabicyclo[3.2.0]hept-2-ene-2-carboxylic acid]",< 1,1 to 4,1 to 4,8 to 32,< 1,1 to 4,1 to 4,1 to 4
